Assay results published in ChEMBL document CHEMBL4256947, “Treatment of pancreatic and related cancers with 5-acyl-6,7-dihydrothieno[3,2-c]pyridines” (2016).

Target: Protein-cysteine N-palmitoyltransferase HHAT (Homo sapiens) (UniProt Q5VTY9)
Test: Inhibition of HA/FLAG/His-tagged Hhat (unknown origin) expressed in human 293T cells at 25 uM using biotinylated Shh peptide as substrate pretreated for 20 mins followed by [125I]-iodo-palitoylCoA/substrate addition measured after 1 hr by gamma counting method relative to control

Chain of Protein-cysteine N-palmitoyltransferase HHAT (Homo sapiens) (Q5VTY9 whole entry): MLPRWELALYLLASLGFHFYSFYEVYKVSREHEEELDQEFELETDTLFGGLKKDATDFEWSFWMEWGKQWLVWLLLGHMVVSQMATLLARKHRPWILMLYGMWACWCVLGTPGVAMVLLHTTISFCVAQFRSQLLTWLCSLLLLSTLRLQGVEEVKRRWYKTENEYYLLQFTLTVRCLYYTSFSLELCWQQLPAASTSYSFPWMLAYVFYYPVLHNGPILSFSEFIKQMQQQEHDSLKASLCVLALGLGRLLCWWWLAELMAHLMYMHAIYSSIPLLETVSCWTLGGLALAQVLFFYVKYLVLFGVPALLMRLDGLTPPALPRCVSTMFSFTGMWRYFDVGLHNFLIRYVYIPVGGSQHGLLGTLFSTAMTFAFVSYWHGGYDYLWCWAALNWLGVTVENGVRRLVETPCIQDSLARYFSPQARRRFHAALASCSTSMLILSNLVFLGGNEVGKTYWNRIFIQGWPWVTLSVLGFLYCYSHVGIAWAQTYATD

Row | inhibition | Structure (SMILES)
1 | > 75% | CCC(C)CNCC(=O)N1CCc2sccc2C1c1cccc(C)n1 (configuration not stated)
2 | > 75% | CCC(C)CNCC(=O)N1CCc2sccc2C1c1cccc(C)c1 (configuration not stated)
